Laboratory results as given in patent publication US9242970B2 (ACTELION PHARMACEUTICALS LTD., priority 2010, dated 2016).

Experiments:
human orexin-1 receptor = human orexin-1 receptor (Homo sapiens (Human), UniProt O43613); experiment: In vitro assay: intracellular calcium measurements (FLIPR), antagonistic activity; assay type: cell-based; conditions: CHO cells, 3 nM orexin-A, compound incubation 120 min; marked values are geometric means of n = 2-6; read-out: IC50 OX1
human orexin-2 receptor = human orexin-2 receptor (Homo sapiens (Human), UniProt O43614); experiment: as above; assay type: cell-based; conditions: CHO cells, 3 nM orexin-A, compound incubation 120 min; marked values are geometric means of n = 2-6; read-out: IC50 OX2
Chain of human orexin-2 receptor (O43614 whole entry): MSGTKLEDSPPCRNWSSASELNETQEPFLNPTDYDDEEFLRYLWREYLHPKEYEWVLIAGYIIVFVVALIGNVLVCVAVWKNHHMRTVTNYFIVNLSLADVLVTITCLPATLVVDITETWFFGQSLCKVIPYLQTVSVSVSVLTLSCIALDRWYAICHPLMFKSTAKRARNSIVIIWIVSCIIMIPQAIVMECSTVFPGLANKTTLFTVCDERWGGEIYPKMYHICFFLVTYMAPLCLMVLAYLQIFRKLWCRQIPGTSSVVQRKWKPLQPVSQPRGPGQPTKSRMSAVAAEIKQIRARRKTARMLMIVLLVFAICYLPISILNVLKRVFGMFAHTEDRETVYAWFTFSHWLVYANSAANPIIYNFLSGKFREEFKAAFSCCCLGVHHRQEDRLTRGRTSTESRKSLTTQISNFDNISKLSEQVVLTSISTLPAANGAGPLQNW

Chain of human orexin-1 receptor (O43613 whole entry): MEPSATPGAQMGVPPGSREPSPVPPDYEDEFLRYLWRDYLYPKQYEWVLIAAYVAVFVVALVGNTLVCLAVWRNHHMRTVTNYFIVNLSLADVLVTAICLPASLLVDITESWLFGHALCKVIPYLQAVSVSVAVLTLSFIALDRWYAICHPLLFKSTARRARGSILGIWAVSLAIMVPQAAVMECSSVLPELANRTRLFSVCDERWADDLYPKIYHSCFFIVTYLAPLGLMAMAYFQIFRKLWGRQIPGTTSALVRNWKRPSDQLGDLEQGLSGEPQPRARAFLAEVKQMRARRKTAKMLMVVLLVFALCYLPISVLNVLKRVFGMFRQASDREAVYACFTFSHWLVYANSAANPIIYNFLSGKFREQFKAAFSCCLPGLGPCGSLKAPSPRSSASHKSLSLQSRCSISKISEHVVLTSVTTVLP

| SMILES | IC50 (human orexin-1 receptor) | IC50 (human orexin-2 receptor) |
| --- | --- | --- |
| COc1cccc(OC)c1C1CC(C)C(=O)N1Cc1cccc(-c2nccs2)c1 (stereo not drawn) [Example 132, 5-(2,6-dimethoxyphenyl)-3-methyl-1-(3-(thiazol-2-yl)benzyl)pyrrolidin-2-one] | 4 nM | 44 nM |
| COc1cccc(OC)c1C1CC(C)C(=O)N1Cc1cccc(-c2csc(C)n2)c1 (stereo not drawn) [Example 133, 5-(2,6-dimethoxyphenyl)-3-methyl-1-(3-(2-methylthiazol-4-yl)benzyl)pyrrolidin-2-one] | 2 nM | 24 nM |
| COc1cccc(OC)c1C1CC(C)C(=O)N1Cc1cccc(N2CCCCC2)c1 (stereo not drawn) [Example 134, 5-(2,6-dimethoxyphenyl)-3-methyl-1-(3-(piperidin-1-yl)benzyl)pyrrolidin-2-one] | 37 nM | 157 nM |
| COc1cccc(OC)c1C1CC(C)C(=O)N1Cc1cccc(-n2cccn2)c1 (stereo not drawn) [Example 135, 1-(3-(1H-pyrazol-1-yl)benzyl)-5-(2,6-dimethoxyphenyl)-3-methylpyrrolidin-2-one] | 23 nM | 264 nM |
| COc1cccc(OC)c1C1CCC(=O)N1Cc1cccc(-c2noc(C)n2)c1 (stereo not drawn) [Example 136, 5-(2,6-dimethoxyphenyl)-1-(3-(5-methyl-1,2,4-oxadiazol-3-yl)benzyl)pyrrolidin-2-one] | 219 nM | 547 nM |
| COc1cccc(OC)c1C1CC(C)C(=O)N1Cc1ccc2oc3ccccc3c2c1 (stereo not drawn) [Example 137, 1-(dibenzo[b,d]furan-2-ylmethyl)-5-(2,6-dimethoxyphenyl)-3-methylpyrrolidin-2-one] | 2 nM | 5 nM |
| COc1cccc(OC)c1C1CC(C)C(=O)N1Cc1cccc(-c2ccccc2)n1 (stereo not drawn) [Example 138, 5-(2,6-dimethoxyphenyl)-3-methyl-1-((6-phenylpyridin-2-yl)methyl)pyrrolidin-2-one] | 32 nM | 29 nM |
| COc1cccc(OC)c1C1CC(C)C(=O)N1Cc1ccnc(-c2ccccc2)c1 (stereo not drawn) [Example 139, 5-(2,6-dimethoxyphenyl)-3-methyl-1-((2-phenylpyridin-4-yl)methyl)pyrrolidin-2-one] | 35 nM | 172 nM |
| COc1cccc(OC)c1C1CC(C)C(=O)N1Cc1cccc(-c2ccccn2)c1 (stereo not drawn) [Example 140, 5-(2,6-dimethoxyphenyl)-3-methyl-1-(3-(pyridin-2-yl)benzyl)pyrrolidin-2-one] | 10 nM | 73 nM |
| COc1cccc(OC)c1C1CC(C)C(=O)N1Cc1cccc(-c2cccnc2)c1 (stereo not drawn) [Example 141, 5-(2,6-dimethoxyphenyl)-3-methyl-1-(3-(pyridin-3-yl)benzyl)pyrrolidin-2-one] | 35 nM | 28 nM |
| COc1cccc(OC)c1C1CC(C)C(=O)N1Cc1cccc(-c2ncccn2)c1 (stereo not drawn) [Example 142, 5-(2,6-dimethoxyphenyl)-3-methyl-1-(3-(pyrimidin-2-yl)benzyl)pyrrolidin-2-one] | 11 nM | 40 nM |
| COc1cccc(OC)c1C1CC(C)C(=O)N1Cc1cccc(-c2noc(C)n2)c1 (stereo not drawn) [Example 143, 5-(2,6-dimethoxyphenyl)-3-methyl-1-(3-(5-methyl-1,2,4-oxadiazol-3-yl)benzyl)pyrrolidin-2-one] | 27 nM | 46 nM |
| COc1cccc(OC)c1C1CC(C)C(=O)N1Cc1cnn(-c2ccccc2)c1 (stereo not drawn) [Example 144, 5-(2,6-dimethoxyphenyl)-3-methyl-1-((1-phenyl-1H-pyrazol-4-yl)methyl)pyrrolidin-2-one] | 223 nM | 318 nM |
| COc1cccc(OC)c1C1CC(C)C(=O)N1Cc1csc(-c2ccccc2)n1 (stereo not drawn) [Example 145, 5-(2,6-dimethoxyphenyl)-3-methyl-1-((2-phenylthiazol-4-yl)methyl)pyrrolidin-2-one] | 28 nM | 54 nM |
| COc1cccc(OC)c1C1CC(C)C(=O)N1Cc1cccc(-c2ccccn2)c1F (stereo not drawn) [Example 146, 5-(2,6-dimethoxyphenyl)-1-(2-fluoro-3-(pyridin-2-yl)benzyl)-3-methylpyrrolidin-2-one] | 39 nM | 230 nM |
